Results: US20210000814A1, “RIMEGEPANT FOR CGRP RELATED DISORDERS” (Biohaven Pharmaceutical Holding Company Ltd., priority 2018, published 2021)

What was measured:
[1] = BHV3000-301 Phase 3 trial: safety and tolerability; type: in vivo, human; conditions: Study 301
Protocol: Methods • In a double-blind, randomized, placebo-controlled, multicenter study (Study 301, NCT03235479) adults ≥[…] of age with at least a 1-year history of ICHD 3-beta migraine were eligible to participate. Following a 3- to 28-day screening period, subjects were randomized to receive rimegepant 75 mg or matching placebo and instructed to treat a single migraine attack with 1 dose of the blinded study drug (rimegepant or placebo) when headache pain reached moderate or severe intensity. The coprimary endpoints were pain freedom at 2 hours postdose and freedom from the most bothersome symptom (MBS) at 2 hours postdose. Safety assessments included adverse events (AEs), ECGs, vital signs, physical measurements, and routine laboratory tests, including assessment of liver function. Unless stated otherwise, values presented are mean±SD.

[2] = human, in vivo
Protocol: Clinical Trial—BHV3000-303: Phase 3: Double-Blind, Randomized, Placebo-Controlled, Safety and Efficacy Trial of BHV-3000 (Rimegepant) Orally Discintegrating Tablet (ODT) for the Acute Treatment of Migraine (ClinicalTrials.gov Identifier: NCT03461757) • A phase 3 clinical study was conducted with 1812 participants, as follows.
Study Design • Study Type: Interventional (Clinical Trial) • Actual Enrollment: 1812 participants • Allocation: Randomized • Intervention Model: Parallel Assignment • Masking: Triple (Participant, Care Provider, Investigator) • Primary Purpose: Treatment • Official Title: BHV3000-303: Phase 3, Double-Blind, Randomized, Placebo Controlled, Safety and Efficacy Trial of BHV-3000 (Rimegepant) Orally Disintegrating Tablet (ODT) for the Acute Treatment of Migraine • Actual Study Start Date: Feb. 27, 2018 • Actual Primary Completion Date: Oct. 8, 2018 • Actual Study Completion Date: Oct. 15, 2018

[3] = Pooled safety data (AEs, liver function tests) of Studies 301, 302 and 303; type: in vivo, human
[4] = system: patients with migraine; assay: BHV3000-201: reduction in headache days (migraines) per month, treatment vs observation phase; type: in vivo, human
Text: Study Design • Study Type: Interventional (Clinical Trial) • Estimated Enrollment: 2000 participants • Intervention Model: Single Group Assignment • Masking: None (Open Label) • Primary Purpose: Treatment • Official Title: A Multicenter, Open Label Long-Term Safety Study of BHV3000 in the Acute Treatment of Migraine • Actual Study Start Date: Aug. 30, 2017 • Estimated Primary Completion Date: July 2019 • Estimated Study Completion Date: July 2019 In addition to the interim safety analysis, data from subjects was assessed to determine reductions in the number of headache days per month.

[5] = pooled 301, 302, 303, n = 1,771

LFTs >3xULN [2]: one patient
SMILES: N[C@@H]1c2cccnc2[C@H](OC(=O)N2CCC(n3c(=O)[nH]c4ncccc43)CC2)CC[C@H]1c1cccc(F)c1F [Rimegepant, [(55,65,9R)-5-amino-6-(2,3-difluorophenyl)-6,7,8,9-tetrahydro-5H-cyclohepta[b]pyridin-9-yl]4-(2-oxo-3H-imidazo[4,5-b]pyridin-1-yl)piperidine-1-carboxylate]
SAE related to the study drug [1]: No SAE
bilirubin elevations >2 times ULN [1]: No bilirubin elevations
transaminase level >5 times ULN [1]: no subject
safety and tolerability profile ([1]; 75 mg oral tablet): favorable tolerability and safety
AE dizziness ([1]; 4/546 subjects): 0.7%
AE nausea ([1]; 5/546 subjects): 0.9%
Serum ALT or AST levels greater than ULN ([1]; 11/546 subjects): 2.0%
Serious AEs (SAEs) ([1]; n=2, both not dosed before onset): 0.4%
safety and tolerability [2]: consistent with the profile previously observed in Study 301
highest incidence of any single adverse event (AE) ([2]; 48 h): ≤ 1.6%
bilirubin elevations > 2x ULN ([3]; across Studies 301, 302 and 303): no patients
ALT or AST >5x ULN, number of patients ([3]; pooled 301, 302, 303, AST elevation deemed not drug-related): 1
ALT or AST >3x ULN, number of patients [3, 5]: 2
ALT or AST >3x ULN, percent [3, 5]: (0.1%)
ALT or AST >5x ULN, percent [3, 5]: (0.06%)
ALT or AST >10x ULN, number of patients [3, 5]: 0
ALT or AST >20x ULN, number of patients [3, 5]: 0
ALT or AST >ULN, number of patients [3, 5]: 48
ALT or AST >ULN, percent [3, 5]: (2.7%)
subjects with > = 20.0% decrease, number ([4]; Overall, n 1731): 683
subjects with > = 25.0% decrease, number ([4]; Overall, n 1731): 602
subjects with > = 30.0% decrease, number ([4]; Overall, n 1731): 523
subjects with > = 35.0% decrease, number ([4]; Overall, n 1731): 442
subjects with > = 40.0% decrease, number ([4]; Overall, n 1731): 362
subjects with > = 45.0% decrease, number ([4]; Overall, n 1731): 287
subjects with > = 50.0% decrease, number ([4]; Overall, n 1731): 226
onset of reductions in the mean number of headache days per month ([4]; Study 201): as early as the first month
